Data set [1] has as its system L. amazonensis. The experiment in a line: Growth inhibition of L. amazonensis promastigotes (resazurin). The following applies: for Selectivity Index MΦ/L. amaz: EC50 mammalian cell line/EC50 L. amazonensis; for EC50: Leishmania amazonensis, read-out: EC50 ± SD L. amaz. A general note: The colour change of resazurin is a common sign of viable cells or microbes.
Data set [2] relates to T. cruzi. The following applies: cited from earlier work.
The conditions of data set [3]: cited from earlier work.
In the next data set the test system is T. brucei. The experiment in a line: Growth inhibition of T. brucei bloodstream form trypomastigotes (resazurin). The format is cell-based, Trypanosoma brucei brucei. The settings on record: for EC50: Trypanosoma brucei, read-out: EC50 ± SD T. brucei. As to the method: Compounds were dissolved in dimethylsulfoxide (DMSO).
Details of data set [4]: method as in PMID 24749923, PMID 26492824, PMID 25512408. The following applies: ref [13],[14],[15]; cited from earlier work.
A further data set relates to human macrophages. As to the kind of experiment: Cytotoxicity in human macrophages. The format is cell-based. The following applies: 50 µM. As to the method:
Differentiation of THP-1 to produce macrophage-like cells was carried out using phorbol 12-myristate-13-acetate (Sigma-Aldrich, Deisenhofen, Germany).
All assays were performed in triplicate.

The test system of data set [5] is J774.1 murine macrophages. As to the kind of experiment: Nonspecific cytotoxicity in murine macrophages (MTT). The settings on record: Mus musculus, J774.1, read-out: EC50 ± SD MΦ.
Method: Cell viability was then assessed using the 3-(4,5-dimethylthiazol-2-yl)-2,5-diphenyltetrazolium bromide (MTT) colorimetric assay [1]. […] All assays were performed in triplicate [35].
Data set [6] deals with L. amazonensis. As to the kind of experiment: Murine model of cutaneous Leishmaniasis. The settings on record: BALB/c mice, oral.
Method: For the in vivo model of cutaneous disease, 1 × 10^7 amastigote parasites of L. amazonensis PH8 were inoculated in the upper part of the left paw of the mice. […] The mice were sacrificed 30 days post-infection. The antiparasitic effect was evaluated by two methods: the weekly evolution of the diameter of the infected paw throughout the experiment (Figure 2C) and the quantification of the parasite load in the infected area at the end of the experiment (Figure 2A).
Golden hamsters (Mesocritus auratus) were used to maintain L. amazonensis infections with the parasites passage every 6 to 8 weeks. BALB/c mice (female and male) supplied by the IFFA-CREDO, Lyon, France, and bred at the Instituto de Investigaciones en Ciencias de la Salud, Asuncion, Paraguay, were inoculated in the right hind footpad with 2 × 10^6 L. amazonensis amastigotes in 100 µL PBS obtained from donor hamsters. Disease progression was monitored by the measurement of lesion diameters for 7 to 12 weeks. […] Two days before the administration of the drug, the mice were randomly divided into groups of eight. […] The animals were euthanized two weeks after cessation of treatments to assess parasitological loads in the infected footpad. […] Following incubation at 27 °C for seven days, cultures were examined with an inverted microscope (Olympus, Tokyo, Japan) at a magnification of ×400. The number of parasites per gram in the lesion was calculated by the following equation: Parasite burden = geometric mean of the number of parasites in each duplicate/(number of microscope field counted × weight of lesion × (25,000) hemocytometer correction factor) [37]. […] Comparisons of parasite suppression in the infected footpads of the untreated and drug-treated groups were performed by Student’s t-test. One-way ANOVA (as a non-parametric statistical test) was also used on ranks.
Another data set deals with L. infantum amastigote. As to the kind of experiment: Single dose study in the amastigote form of L. infantum. The format is cell-based. The settings on record: Leishmania infantum, single dose 10 µM.
Data set [7] concerns L. infantum reference strain (MHOM/BR/2002/LPC-RPV). The experiment in a line: Growth inhibition of L. infantum reference strain promastigotes (resazurin). The settings on record: for Selectivity Index MΦ/Lin–Ref: EC50 mammalian cell line/EC50 L. infantum reference strain; for EC50: Leishmania infantum, read-out: EC50 ± SD Lin–Ref.
Data set [8] deals with L. infantum veterinary isolate (MCAN_UY_2015_gPL8). The experiment in a line: Growth inhibition of L. infantum veterinary isolate promastigotes (resazurin). The settings on record: for Selectivity Index MΦ/Lin–Vet: EC50 mammalian cell line/EC50 L. infantum veterinary isolate; for EC50: Leishmania infantum, read-out: EC50 ± SD Lin–Vet.
The conditions of data set [9]: mice, up and down test, cited from earlier work.
The test system of another data set is fibroblasts (NCTC929). The experiment in a line: Cytotoxicity in fibroblasts. The format is cell-based. The settings on record: NCTC-929, read-out: EC50 ± SD Fibroblasts. The source says: Table 5 Cytotoxicity and selectivity index of reference drugs and selected molecules. | column: EC50 ± SD (µM) ^a / Fibroblasts
Another data set deals with human red blood cells. As to the kind of experiment: Red Blood Cell Lysis Assay. The settings on record: 50 µM. The format is cell-based. As to the method:
To assess a compound’s hemolytic activity the Red Blood Cell Lysis Assay (national blood bank) was performed. A compound-containing erythrocyte (2% (w/v)) suspension prepared in phosphate-buffered saline pH 7.4 was incubated for 24 h at 37 °C and the amount of hemoglobin released into the supernatant determined spectrophotometrically using a Varioskan TM Flash Multimode Reader (Thermo ScientificTM, MA, USA) set to a wavelength of 405 nm. The % hemolysis was determined using the follows equation: % released hemoglobin = [(A1 − A0)/(A1water)] × 100, where A1 and A0 represent the absorbance at 405 nm of the test sample at 0 and 24 h, and A1water the absorbance at 405 nm of water at 24 h. The experiments were performed by quintuplicate. […]

A short description of data set [10]: Acute oral toxicity (up and down test). The settings on record: mice.
The subject of another data set is L. braziliensis. The following applies: read-out: EC50 ± SD L. brazils, cited from earlier work.
In data set [11] the test system is T. cruzi. Further details: method as in PMID 31652542. The following applies: mice, ref [16], cited from earlier work.
The conditions of data set [12]: cited from earlier work; for Ames Test (mutagenicity): ref [13],[14],[15].
For another data set, the system named is Cruzipain. The following applies: mechanism of action; ref [13],[14],[15]; cited from earlier work.
Data set [13] deals with triosephosphate isomerase. The settings on record: mechanism of action; ref [13],[14],[15]; cited from earlier work.
Data set [14] is described as follows: Liver fraction stability (cytosolic and microsomal fraction of rat hepatocytes, TLC). The format is in vitro ADME. The following applies: rat hepatocyte cytosolic and microsomal fractions, 37 °C. As to the method: For the determination of the stability in the different fractions, (cytosolic and microsomal of rat hepatocytes) the different proteins present in them were used. The fractions were prepared according to the previously reported protocol. […] The final concentration of the molecules in the aqueous medium was 400 µM and prepared from a stock in DMSO of 40 mM. The solutions were homogenized and incubated at 37 °C at 10 min, 30 min, 1 h, 2 h, 3 h and 4 h. (by TLC). For this, it was incubated at 37 °C in a volume of 1 mL: 2.5 µL of 30 mM Magnesium Chloride (MgCl); 2.5 µL of 40 mM Nicotinamide Adenosine Dinucleotide Phosphate (NADP+); 5 µL of 350 mM Glucose 6- Phosphate (Glu6P); 5 µL of Glucose 6- phosphate dehydrogenase (Glu6PD) 50 U/mL, 5 µL of the stock of 40 mM compounds and the volume of the Phosphate Buffer (pH = 7) must be such that cytosolic (CF) and microsomal (MF) fraction FC and FM present a final protein concentration of 0.1 mg/mL. After that, the stability of compounds 796 and 1019 in the cytosolic (FCF) and microsomal (FMF) fraction of rat hepatocytes was evaluated at different times (1–4 h). Thin-layer chromatography of ethyl acetate extracts was conducted to evaluate the presence of decomposition products. The mobile phase used for these TLCs was n-hexane: ethyl acetate (7: 3).

In data set [15] the target is T1, Triosephosphate isomerase from T. brucei (TbTIM) (Trypanosoma brucei brucei, UniProt P04789).
T1 construct: made in house; host or cells: Escherichia coli
As to the kind of experiment: TbTIM inactivation. The format is biochemical. As to the method: (§1) Table S3. Activity of compound 796 in Triosephosphate isomerase from L. mexicana (LmTIM) […]
(§2) Expression and purification of proteins: TbTIM, LmTIM were expressed in Escherichia coli and purified as described in the literature. After purification, the enzyme, disolved in 100 mM triethanolamine, 10 mM EDTA and 1 mM dithiothreitol (pH 8), was precipitated with ammonium sulfate (75% saturation) and stored at 4 _C. Before use, extensive dialysis against 100 mM triethanolamine/10 mM EDTA (pH 7.4) was performed. Protein concentration was determined by absorbance at 280 nm (ε= 36,440 M-1cm-1) TbTIM and LmTIM. Enzymatic activity assays: Enzymatic activity was determined following the conversion of glyceraldehyde 3‐phosphate into dihydroxyacetone phosphate. The decrease in absorbance at 340 nm was followed in a multi‐cell Cary spectrophotometer at 25 °C. The reaction mixture (1 mL, pH 7.4) contained 100 mM triethanolamine, 10 mM EDTA, 0.2 mM NADH, 1 mM glyceraldehyde 3‐phosphate and 0.9 units of _‐glycerol phosphate dehydrogenase. The reaction was initiated by the addition of 5 ng/mL of the TbTIM. For the inhibition studies, TcTIM, LmTIM and TbTIM were incubated at a concentration of 5 mg/mL in a buffer containing 100 mM triethanolamine, 10 mM EDTA, pH 7.4 and 10% of DMSO at 36 _C. The mixture also contained the compounds at the indicated concentrations. Compounds were dissolved in DMSO. […]

Another data set in a line: in vivo. The settings on record: male, B6D2F1, mouse, po, 2000 mg/kg.
Data set [16] has as its target T2, Triosephosphate isomerase from L. mexicana (LmTIM) (Leishmania mexicana, UniProt P48499).
T2 construct: made in house; host or cells: Escherichia coli
The experiment in a line: LmTIM inactivation. The format is biochemical. As to the method: as §1, §2

[17] abbreviates: Table 4, curcuminoids, ref [14], read-out: EC50 ± SD T. cruzi.
Where [18] appears, read: epimastigotes, multiple strains, ref [13],[14],[15], read-out: EC50 in vitro anti-T. cruzi, epimastigotes.
The mark [19] stands for this setting: Table 4, curcuminoids, ref [14].

Where two headings read alike, the source gives them in different places.

T1 sequence (P04789 whole entry): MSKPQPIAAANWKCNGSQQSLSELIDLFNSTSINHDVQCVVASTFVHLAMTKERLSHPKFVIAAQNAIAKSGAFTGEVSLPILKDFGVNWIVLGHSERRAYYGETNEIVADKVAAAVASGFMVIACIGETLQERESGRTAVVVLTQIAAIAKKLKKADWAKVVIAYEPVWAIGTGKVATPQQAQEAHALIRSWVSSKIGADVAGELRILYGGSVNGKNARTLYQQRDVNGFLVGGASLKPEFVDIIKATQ
T2 sequence (P48499 whole entry): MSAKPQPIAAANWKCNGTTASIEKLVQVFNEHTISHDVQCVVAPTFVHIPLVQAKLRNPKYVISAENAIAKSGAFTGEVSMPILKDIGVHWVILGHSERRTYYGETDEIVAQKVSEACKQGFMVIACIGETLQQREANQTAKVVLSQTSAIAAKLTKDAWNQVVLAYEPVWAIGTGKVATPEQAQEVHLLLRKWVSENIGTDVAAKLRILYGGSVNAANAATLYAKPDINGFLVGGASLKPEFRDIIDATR

Consider `C=CCn1c(C(=O)N2CCN(C/C=C/c3ccccc3)CC2)cs\c1=N/N=C/C=C/c1ccco1` [Compound 314], for which the “Selectivity Index MΦ/L. amaz” value in the data set on L. amazonensis [1] is 3. Further, the EC50 (as a rule, the midpoint of the concentration-response curve) with L. amazonensis [1] was 12 ± 5 µM; in the data set with T. cruzi [2] (Table 3, thiazolidene hydrazines, ref [13],[16],[19],[23],[25], read-out: EC50 ± SD T. cruzi) it was 3.1 ± 0.2 µM; in the data set on T. cruzi [2] (amastigotes, multiple strains, ref [13],[14],[15], read-out: EC50 in vitro anti-T. cruzi, amastigotes), 0.72 µM; in the data set with T. brucei (Table 3, thiazolidene hydrazines) it was 5 ± 1 µM; in data set [5], 30 ± 5 µM; in data set [7] it was 1.3 ± 0.5 µM. For the same molecule, the EC50 in data set [8] was 2.5 ± 1 µM; in the data set with fibroblasts (NCTC929) it was 346 ± 9 µM; in the data set with L. braziliensis (Table 3, thiazolidene hydrazines, ref [13],[16],[19],[23],[25]), 4 ± 1 µM. Besides, the “micronucleus test, genotoxicity” value in data set [3] (previous works, ref [13],[16]) is on record as “not genotoxic”. In addition, the “Micronucleus test in mice (Genotoxicity)” value in [3] (ref [13],[14],[15]) is listed as “No”. Besides, in [4], the “Stability in vitro (microsomal, plasma, other solutions)” value (from here on “Stability in vitro”) is reported as “High”. Also, the “cytotoxicity in human macrophages” value in the data set with human macrophages is “did not see any inhibition”. Also, the “leishmanicidal activity in vivo” value in the data set on L. amazonensis [6] (half the dose of 796) is “low”. In addition, the inhibition – broadly, how much of the control response was suppressed – at 10 µM in the data set with L. infantum amastigote was found to be 85%. The “Selectivity Index MΦ/Lin–Ref” value in [7] was found to be 23. Also, the “Selectivity Index MΦ/Lin–Vet” value in data set [8] stood at 12. For the same molecule, the “acute toxicity LD50” value in data set [9] (previously evaluated, ref [13],[16]) is recorded as > 2000 mg/kg of weight. Further, the “Acute oral toxicity LD50” value in data set [9] (ref [13],[14],[15]) is on record as “^d LD50 > 2000 mg/kg in mice”. The “cytotoxicity in human red blood cells” value in the data set with human red blood cells is reported as “did not see any inhibition”. Besides, in data set [10], the “survival in the acute toxicity model in vivo” value amounted to 100%. The reduction of parasitemia entry in the data set on T. cruzi [11] (oral, same dose as in the Leishmaniasis in vivo assay) is reported as “more than 60%”. The survival with T. cruzi [11] (mean 60% survival in untreated group) is listed as 100%. Further, the “AMES test, mutagenic capacity” value in data set [12] (previous works, ref [13],[16]) was “negative”. Also, in [12], the “Ames Test (mutagenicity)” value is on record as “No”. In the data set on Cruzipain, the IC50 (as a rule, the midpoint of a concentration-inhibition curve) is 4.3 µM.
As to `O=C1/C(=C/C=C/c2ccco2)CCC/C1=C\C=C\c1ccco1` [Compound 1019], the EC50 in the data set with L. amazonensis [1] is 7 ± 1 µM; with T. cruzi [2] (setting [17]), 0.6 ± 0.2 µM; in the data set on T. cruzi [2] (setting [18]), 0.6 µM; in [7] it was less than 0.3 µM; in the data set with L. braziliensis (setting [19]), 13 ± 7 µM. Further, the “trypanosomicidal effect on T. brucei” value in the data set on T. brucei was “no trypanosomicidal effect”. Besides, the “Stability in vitro” value in [4] was “low”. Further, the IC50 in data set [13] is 0.086 µM. In data set [8], the “growth inhibitory / trypanosomicidal effect on the L. infantum canine-derived isolate” value is “no trypanosomicidal effect”. Also, the “Ames Test (mutagenicity)” value in [12] is “no”.
As for `O=C(/C=C/c1cccs1)/C=C/c1cccs1` [Compound 796], the “Selectivity Index MΦ/L. amaz” value with L. amazonensis [1] is listed as 5. For the same molecule, the EC50 in the data set with L. amazonensis [1] is 8 ± 2 µM; in the data set on T. cruzi [2] (setting [17]), 5 ± 0.8 µM; in the data set on T. cruzi [2] (setting [18]) it was 5 µM; with T. brucei (Table 4, curcuminoids) it was 0.6 ± 0.1 µM; in [5], 38 ± 7 µM; in data set [7], 4 ± 0.5 µM. Further, the values for the EC50 (in [8]; in the data set on fibroblasts (NCTC929); in the data set on L. braziliensis (setting [19])) were 10 ± 2 µM, 158 ± 5 µM and 4 ± 0.5 µM, respectively. The “metabolic stability: time compound detected / degraded” value in [14] is recorded as not below 4 h. In addition, the inhibition at 50 µM was 61% in data set [15] and 42.5% in data set [16]. Moreover, the “Stability in vitro” value in data set [4] is “moderate”. Besides, the “Media Mn/Mouse ± SD” value (male, CD-1, mouse, in vivo, 150 mg/kg) came to 5 ± 1. The “Number EPMn (total polychromatic micronucleated erythrocytes in the 5 assays)” value (mice, 796 150 mg/kg oral, Cyclophosphamide intraperitoneal positive control, 5000 EPC observed) worked out at 21. In the data set with human macrophages, the “cytotoxicity in human macrophages” value is on record as “did not see any inhibition”. In the data set “in vivo”, the LD50 (commonly the dose expected to kill half of the subjects tested) at 14 days was more than 2000 mg/kg. In addition, the “% of suppression of the parasites” value with L. amazonensis [6] (parasite load in lesion, 796 at 203 µmol/kg, other molecules at half that dose) was “more than 50%”. Moreover, the “diameter of the paw” value in the data set with L. amazonensis [6] (when treatment begins (Figure 2C)) is “begins to decrease”. The inhibition at 10 µM with L. infantum amastigote was 90%. The “Selectivity Index MΦ/Lin–Ref” value in data set [7] turned out to be 10. The “Selectivity Index MΦ/Lin–Vet” value in data set [8] amounted to 4. Moreover, in the data set on human red blood cells, the “cytotoxicity in human red blood cells” value is “did not see any inhibition”. For the same molecule, in data set [10], the “survival in the acute toxicity model in vivo” value is listed as 100%.
